For this test, the target named is T1, TPC1 (Strongylocentrotus purpuratus, UniProt D1J6X7).
T1 sequence (D1J6X7 1-881): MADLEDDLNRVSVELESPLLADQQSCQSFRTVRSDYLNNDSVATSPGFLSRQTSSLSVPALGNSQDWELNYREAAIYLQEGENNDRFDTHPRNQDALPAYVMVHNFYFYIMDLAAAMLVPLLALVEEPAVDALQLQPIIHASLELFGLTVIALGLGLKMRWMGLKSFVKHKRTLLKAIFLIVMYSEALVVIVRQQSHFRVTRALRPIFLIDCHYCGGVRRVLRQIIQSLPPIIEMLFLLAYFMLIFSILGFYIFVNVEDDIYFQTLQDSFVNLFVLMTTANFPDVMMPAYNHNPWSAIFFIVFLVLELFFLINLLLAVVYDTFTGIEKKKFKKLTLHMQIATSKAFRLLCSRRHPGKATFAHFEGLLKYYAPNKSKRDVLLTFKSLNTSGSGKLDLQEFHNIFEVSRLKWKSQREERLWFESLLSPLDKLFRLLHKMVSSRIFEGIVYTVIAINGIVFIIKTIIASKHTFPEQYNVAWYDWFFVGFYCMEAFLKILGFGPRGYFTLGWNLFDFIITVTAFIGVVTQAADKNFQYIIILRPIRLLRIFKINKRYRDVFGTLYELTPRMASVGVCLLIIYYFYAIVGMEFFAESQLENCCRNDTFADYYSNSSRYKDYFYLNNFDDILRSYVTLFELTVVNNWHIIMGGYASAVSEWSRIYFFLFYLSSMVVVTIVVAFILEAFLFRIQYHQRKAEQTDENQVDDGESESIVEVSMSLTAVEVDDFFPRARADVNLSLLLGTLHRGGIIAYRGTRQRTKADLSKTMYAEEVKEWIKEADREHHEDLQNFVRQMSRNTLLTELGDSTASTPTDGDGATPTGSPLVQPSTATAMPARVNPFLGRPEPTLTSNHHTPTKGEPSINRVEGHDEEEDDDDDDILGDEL
Description: inhibition of NAADP-evoked Ca2+ signals. It is filed as cell-based.

A word on the IC50: it is the concentration that inhibits the measured activity by half.

For the compound `COC(=O)C1=C(C)NC(C)=C(C(=O)OC)C1c1ccccc1[N+](=O)[O-]` [nifedipine], half-maximal inhibition (IC50) was put at 4 µM.

The values are drawn from publication PMC4327855 (Science signaling, 2014).
